Source: patent US12577242B2, “Pyrrolopyridine and imidazopyridine antiviral compounds” (KATHOLIEKE UNIVERSITEIT LEUVEN, priority 2020, dated 2026)

Tests used:
[1] = tested on: Bovine viral diarrhea (BVD) virus; test: Anti-BVDV CPE inhibition assay in MDBK cells; details: for EC50: Bovine viral diarrhea virus isolates and strains, MDBK, in Bos taurus, 96 h; for SI (selectivity index, ratio of CC50 and EC50): CC50/EC50, MDBK cells, BVD virus
[2] = Cytotoxicity in MDBK cells (no BVD virus added); details: bovine, MDBK cells (Madin-Darby bovine kidney), no virus added

Structure (SMILES) | EC50 [1] [nM] | SI (selectivity index, ratio of CC50 and EC50) [1] | CC50 at 4 days [2] [µM]
Cc1ccc2nc(Cn3ccc4nc(-c5ccccc5F)nc-4c3)[nH]c2c1 [CPD-36, 2-(2-fluorophenyl)-5-((6-methyl-1H-benzo[d]imidazol-2-yl)methyl)-5H-imidazo[4,5-c]pyridine] | 403 ± 129 | >124 | > 50
Fc1ccc2nc(Cn3ccc4nc(-c5ccccc5F)nc-4c3)[nH]c2c1 [CPD-37, 5-((6-fluoro-1H-benzo[d]imidazol-2-yl)methyl)-2-(2-fluorophenyl)-5H-imidazo[4,5-c]pyridine] | 370 ± 74 | >135 | > 50
Fc1ccccc1-c1nc2ccn(Cn3nnc4ccccc43)cc-2n1 [CPD-38, 1-((2-(2-fluorophenyl)-5H-imidazo[4,5-c]pyridin-5-yl)methyl)-1H-benzo[d][1,2,3]triazole] | 336 ± 103 | >149 | > 50
Fc1cccc(-c2nc3ccn(Cc4cc(-c5cc(F)ccc5F)no4)cc-3n2)c1 [CPD-39, 3-(2,5-difluorophenyl)-5-((2-(3-fluorophenyl)-5H-imidazo[4,5-c]pyridin-5-yl)methyl)isoxazole] | 84 ± 8 | >595 | > 50
Cc1ccc2nc(Cn3ccc4nc(-c5cc(OCCO)ccc5F)nc-4c3)sc2c1 [CPD-41, 2-(4-fluoro-3-(5-((6-methylbenzo[d]thiazol-2-yl)methyl)-5H-imidazo[4,5-c]pyridin-2-yl)phenoxy)ethan-1-ol] | 223 ± 143 | >224 | > 50
OCCOc1ccc(F)c(-c2nc3ccn(Cc4cc(-c5cc(F)ccc5F)no4)cc-3n2)c1 [CPD-42, 2-(3-(5-((3-(2,5-difluorophenyl)isoxazol-5-yl)methyl)-5H-imidazo[4,5-c]pyridin-2-yl)-4-fluorophenoxy)ethan-1-ol] | 460 ± 48 | >109 | > 50
N#Cc1ccc(-c2nc3ccn(Cc4cc(-c5cc(F)ccc5F)no4)cc-3n2)cc1 [CPD-43, 4-(5-((3-(2,5-difluorophenyl)isoxazol-5-yl)methyl)-5H-imidazo[4,5-c]pyridin-2-yl)benzonitrile] | 81 ± 8 | >617 | > 50
CN(C)c1cccc(-c2nc3ccn(Cc4cc(-c5cc(F)ccc5F)no4)cc-3n2)c1 [CPD-44, 3-(5-((3-(2,5-difluorophenyl)isoxazol-5-yl)methyl)-5H-imidazo[4,5-c]pyridin-2-yl)-N,N-dimethylaniline] | 88 ± 17 | >568 | > 50
Cc1ccc2nc(Cn3ccc4nc(-c5ccccc5CO)nc-4c3)sc2c1 [CPD-45, (2-(5-((6-methylbenzo[d]thiazol-2-yl)methyl)-5H-imidazo[4,5-c]pyridin-2-yl)phenyl)methanol] | 297 ± 107 | >168 | > 50
OCc1ccccc1-c1nc2ccn(Cc3cc(-c4cc(F)ccc4F)no3)cc-2n1 [CPD-46, (2-(5-((3-(2,5-difluorophenyl)isoxazol-5-yl)methyl)-5H-imidazo[4,5-c]pyridin-2-yl)phenyl)methanol] | 465 ± 26 | >108 | > 50
Cc1ccc(-c2nc3ccn(Cc4cc(-c5cc(F)ccc5F)no4)cc-3n2)s1 [CPD-47, 3-(2,5-difluorophenyl)-5-((2-(5-methylthiophen-2-yl)-5H-imidazo[4,5-c]pyridin-5-yl)methyl)isoxazole] | 341 ± 25 | 70 | 24
Cc1cc(-c2nc3ccn(Cc4cc(-c5cc(F)ccc5F)no4)cc-3n2)cs1 [CPD-48, 3-(2,5-difluorophenyl)-5-((2-(5-methylthiophen-3-yl)-5H-imidazo[4,5-c]pyridin-5-yl)methyl)isoxazole] | 395 ± 22 | 68 | 27
Cc1scc(-c2nc3ccn(Cc4cc(-c5cc(F)ccc5F)no4)cc-3n2)c1C [CPD-49, 3-(2,5-difluorophenyl)-5-((2-(4,5-dimethylthiophen-3-yl)-5H-imidazo[4,5-c]pyridin-5-yl)methyl)isoxazole] | 409 | 76 | 31
Fc1ccc(OC(F)(F)F)cc1-c1cc2ccn(Cn3nnc4ccccc43)cc-2n1 [Compound II, 1-({2-[2-fluoro-5-(trifluoromethoxy)phenyl]-6H-pyrrolo[2,3-c]pyridin-6-yl}methyl)-1H-benzotriazole] | 23 | 870 | 20
OCCOc1ccc(F)c(-c2cc3ccn(Cn4nnc5ccccc54)cc-3n2)c1 [Compound III, 2-(3-{6-[(1H-benzotriazol-1-yl)methyl]-6H-pyrrolo[2,3-c]pyridin-2-yl}-4-fluorophenoxy)ethan-1-ol] | 19 ± 7 | 1158 | 22
COc1ccccc1-c1cc2ccn(Cn3nnc4ccccc43)cc-2n1 [Compound IV, 1-{[2-(2-methoxyphenyl)-6H-pyrrolo[2,3-c]pyridin-6-yl]methyl}-1H-benzotriazole] | 8 ± 5 | 2750 | 22
Cc1ccc2oc(Cn3ccc4cc(-c5ccccc5F)nc-4c3)nc2c1 [Compound IX, 2-{[2-(2-fluorophenyl)-6H-pyrrolo[2,3-c]pyridin-6-yl]methyl}-5-methyl-1,3-benzoxazole] | 1.2 ± 1.5 | 4167 | 5
N#Cc1ccc(-c2cc3ccn(Cn4nnc5ccccc54)cc-3n2)cc1 [Compound VI, 4-{6-[(1H-benzotriazol-1-yl)methyl]-6H-pyrrolo[2,3-c]pyridin-2-yl}benzonitrile] | 16 | >3125 | > 50
COc1ncccc1-c1cc2ccn(Cn3nnc4ccccc43)cc-2n1 [Compound VII, 1-{[2-(2-methoxypyridin-3-yl)-6H-pyrrolo[2,3-c]pyridin-6-yl]methyl}-1H-benzotriazole] | 16 ± 1 | 1375 | 22
Cc1c(-c2cc3ccn(Cn4nnc5ccccc54)cc-3n2)cnn1C [Compound VIII, 1-[(2-(1,5-dimethyl-1H-pyrazol-4-yl)-6H-pyrrolo[2,3-c]pyridin-6-yl)methyl]-1H-benzotriazole] | 335 ± 80 | >149 | > 50
COc1ncccc1-c1cc2ccn(Cc3nc4cc(C)ccc4o3)cc-2n1 [Compound X, 2-((2-(2-methoxypyridin-3-yl)-6H-pyrrolo[2,3-c]pyridin-6-yl)methyl)-5-methyl-1,3-benzoxazole] | 7 ± 4 | 571 | 4
Cc1ccc2nc(Cn3ccc4cc(-c5ccccc5F)nc-4c3)sc2c1 [Compound XI, 2-{[2-(2-fluorophenyl)-6H-pyrrolo[2,3-c]pyridin-6-yl]methyl}-6-methyl-1,3-benzothiazole] | 8 | 500 | 4
Cc1ccc2nc(Cn3ccc4cc(-c5cc(OCCO)ccc5F)nc-4c3)sc2c1 [Compound XII, 2-(4-fluoro-3-(6-((6-methyl-1,3-benzothiazol-2-yl)methyl)-6H-pyrrolo[2,3-c]pyridin-2-yl)phenoxy)ethan-1-ol] | 20 ± 7 | 250 | 5
Cc1ccc2nc(Cn3ccc4cc(-c5ccccc5CO)nc-4c3)sc2c1 [Compound XIII, (2-{6-[(6-methyl-1,3-benzothiazol-2-yl)methyl]-6H-pyrrolo[2,3-c]pyridin-2-yl}phenyl)methanol] | 9 ± 8 | 2000 | 18
COc1ncccc1-c1cc2ccn(Cc3nc4ccc(C)cc4s3)cc-2n1 [Compound XIV, 2-{[2-(2-methoxypyridin-3-yl)-6H-pyrrolo[2,3-c]pyridin-6-yl]methyl}-6-methyl-1,3-benzothiazole] | 17 | 235 | 4
OCCOc1ccc(F)c(-c2cc3cn(Cn4nnc5ccccc54)ccc-3n2)c1 [Compound XIX, 2-(3-{5-[(1H-benzotriazol-1-yl)methyl]-5H-pyrrolo[3,2-c]pyridin-2-yl}-4-fluorophenoxy)ethan-1-ol] | 97 ± 15 | >515 | > 50
Cc1ccc2nc(Cn3ccc4cc(-c5cnn(C)c5C)nc-4c3)sc2c1 [Compound XV, 2-{[2-(1,5-dimethyl-1H-pyrazol-4-yl)-6H-pyrrolo[2,3-c]pyridin-6-yl]methyl}-6-methyl-1,3-benzothiazole] | 16 ± 1 | 1063 | 17
Cc1ccc2nc(Cn3ccc4cc(-c5ccccc5CO)nc-4c3)[nH]c2c1 [Compound XVI, (2-(6-((6-methyl-1H-benzoimidazol-2-yl)methyl)-6H-pyrrolo[2,3-c]pyridin-2-yl)phenyl)methanol] | 294 ± 70 | 75 | 22
Fc1ccccc1-c1cc2cn(Cn3nnc4ccccc43)ccc-2n1 [Compound XVII, 1-{[2-(2-fluorophenyl)-5H-pyrrolo[3,2-c]pyridin-5-yl]methyl}-1H-benzotriazole] | 12 ± 6 | 1583 | 19
Fc1ccc(OC(F)(F)F)cc1-c1cc2cn(Cn3nnc4ccccc43)ccc-2n1 [Compound XVIII, 1-({2-[2-fluoro-5-(trifluoromethoxy)phenyl]-5H-pyrrolo[3,2-c]pyridin-5-yl}methyl)-1H-benzotriazole] | 76 ± 19 | 158 | 12
